{"source": "patent US20070184018A1", "about": "“Anthranilamide insecticides” (priority 2004, published 2007)", "system": "corn planthopper (Peregrinus maidis)", "experiment": "Test F: control of corn planthopper through contact and/or systemic means on corn (maize) plant", "assay_type": "in vivo", "conditions": "sprayed at 250 ppm, nymphs, 6 days, visually assessed", "method": "Test compounds were formulated using a solution containing 10% acetone, 90% water and 300 ppm X-77™ Spreader Lo-Foam Formula non-ionic surfactant containing alkylarylpolyoxyethylene, free fatty acids, glycols and isopropanol (Loveland Industries, Inc.). The formulated compounds were applied in 1 mL of liquid through a SUJ2 atomizer nozzle with ⅛ JJ custom body (Spraying Systems Co.) positioned 1.27 cm (0.5 inches) above the top of each test unit. All experimental compounds in this screen were sprayed at 250 ppm, replicated three times. After spraying of the formulated test compound, each test unit was allowed to dry for 1 hour and then a black, screened cap was placed on top. The test units were held for 6 days in a growth chamber at 19-21° C. and 50-70% relative humidity. Each test unit was then visually assessed for insect mortality.\nFor evaluating control of corn planthopper (Peregrinus maidis) through contact and/or systemic means, the test unit consisted of a small open container with a 3-4 day old corn (maize) plant (spike) inside. White sand was added to the top of the soil prior to application. Test compounds were formulated and sprayed at 250 ppm and replicated three times as described for Test C. […] Each test unit was then visually assessed for insect mortality."}
{"smiles": "Cc1cc(C#N)cc(C(N)=O)c1NC(=O)c1cc(Br)nn1-c1ccccc1Cl", "note": "[Compound 67]", "values": [{"measurement": "mortality", "value": "at least 80%"}]}
